Experimental data as given in paper PMC2632993, “Conformational changes in α7 acetylcholine receptors underlying allosteric modulation by divalent cations” (BMC Pharmacology, 2009).

Assays:
Assay in all cases: MTSEA thiol modification rate (SCAM) from ACh-evoked currents in oocytes
Type in all cases: cell-based, chick
Conditions in all cases: 10 mM Ba^2+
[1] = target: α7 AChR M^37C mutant (C^115A/L^247T background) (Gallus gallus, UniProt P22770, C138A/L270T/M60C)
Protocol: (§1) ACh-evoked current amplitudes decreased following brief, repeated exposure to a limiting concentration of MTSEA (5 μM, 15 seconds). To ensure that the modification reactions were complete, all rate measurements included a final prolonged application of ~100-fold higher concentrations of MTSEA (Fig. 3A and 3B, right). Currents measured following this application represent the endpoint of the reaction between MTSEA and receptors. When the same protocol included Ba^2+ pretreatment and co-application with MTSEA (see Methods), the decreases in current amplitudes were slowed but the same endpoint was obtained (Fig. 3B). Normalized current amplitudes were plotted as a function of the cumulative time of exposure to MTSEA, and pseudo first-order rates were extracted from the single-exponential fits (Fig. 3C).
(§2) Figure 3 Barium slows the rate of MTSEA modification at M^37C. Example of experimental paradigm used to assess Ba^2+ effects on modification rates. […] Endpoints of MTSEA modification are determined by prolonged application of 500 μM MTSEA (right). (B) The same protocol, including Ba^2+ pretreatment and co-application with MTSEA. Current traces are truncated in both (A) and (B) between consecutive MTSEA applications; in all cases the currents were allowed to return to baseline prior to the next application of MTSEA ± ACh. (C) Peak current amplitudes from (A) and (B) are normalized and plotted versus total MTSEA exposure time. Data from this single experiment (no error bars) are fitted to a single-exponential decay (solid line) to extract an apparent pseudo first-order rate constant. The pseudo first-order rate constants calculated in this experiment were 0.011 s^-1 and 0.0019 s^-1 for control (A) and +Ba^2+ (B) measurements, respectively. Second-order rate constants are calculated from these values (Figures 4–6; Table 2).
(§3) Oocytes were superfused in normal extracellular solution containing a reduced Ca^2+ concentration (ESLC; 96 mM NaCl, 2 mM KCl, 1 mM MgCl2, 0.1 mM CaCl2, and 10 mM HEPES, pH 7.5). This solution minimized Ca^2+ influx and eliminated Ca^2+-activated chloride currents. Two-electrode voltage clamp was performed with a GeneClamp 500B controlled by pCLAMP8 software (Molecular Devices, Sunnyvale, CA). Electrodes were filled with 3 M KCl contacting Ag-AgCl wires and had resistances of 0.5 to 2.0 MΩ. Currents were recorded at a constant holding potential of -60 mV. Currents were low pass filtered at 50 Hz and sampled at 100 Hz. Agonist dose-response curves were obtained as described previously, and data were fit to the Hill equation using Origin software (Microcal Software, Northampton, MA).
(§4) MTSEA was prepared daily in distilled water and stored on ice. Stock solution was diluted to the appropriate working concentration in ESLC immediately before each application. […] The limiting dose, yielding 20–40% of the maximal MTSEA effect, was identified for each mutant. […] To measure the effect of Ba^2+ on modification rates we pre-applied 10 mM Ba^2+ for 30 seconds prior to co-application of 10 mM Ba^2+ plus MTSEA. This concentration of Ba^2+ is equivalent to an approximate […] for the modulatory effects in both parental and mutant AChRs. Kinetic data were analyzed as described previously; rate data were fit to a single exponential to extract a pseudo-first order rate constant; this was divided by the MTSEA concentration used to determine the second order rate constant for thiol modification.

[2] = target: α7 AChR E^44C mutant (C^115A/L^247T background) (Gallus gallus, UniProt P22770, C138A/E67C/L270T)
Protocol: as §1, §2, §3, §4

[3] = target: T1, α7 AChR M^40C mutant (C^115A/L^247T background) (Gallus gallus, UniProt P22770, C138A/L270T/M63C)
T1 construct: expressed in transfected cells; host or cells: Xenopus laevis oocytes injected with cRNA
Protocol: as §1, §2, §3, §4

[4] = target: α7 AChR E^172C mutant (C^115A/L^247T background) (Gallus gallus, UniProt P22770, C138A/E195C/L270T)
Protocol: as §1, §2, §3, §4

[5] = target: α7 AChR N^170C mutant (C^115A/L^247T background) (Gallus gallus, UniProt P22770, C138A/L270T/N193C)
Protocol: as §1, §2, §3, §4

[6] = target: α7 AChR N^52C mutant (C^115A/L^247T background) (Gallus gallus, UniProt P22770, C138A/L270T/N75C)
Protocol: as §1, §2, §3, §4

[7] = target: α7 AChR M^40C/E^172Q mutant (C^115A/L^247T background) (Gallus gallus, UniProt P22770, C138A/E195Q/L270T/M63C)
Protocol: as §1, §2, §3, §4

[Ba+2].[Cl-].[Cl-] [Ba^2+, BaCl2]
effect of Ba^2+ on MTSEA modification rate [1]: significant decreases
effect of Ba^2+ on MTSEA modification rate [2]: significant Ba^2+-dependent decreases
effect of Ba^2+ on MTSEA modification rate [3]: significant decreases
effect of Ba^2+ on MTSEA modification rate [4]: significant Ba^2+-dependent decreases
effect of Ba^2+ on MTSEA modification rate [5]: the same as that measured in MTSEA alone
effect of Ba^2+ on MTSEA modification rate [6]: no significant effect
effect of Ba^2+ on MTSEA modification rate [7]: significant slowing
